# Laboratory results as given in patent publication US20040203034A1 (The University of Chicago, priority 2003, published 2004).
# Like-named read-outs stand apart in the source and are kept apart here.
# Tests used:
# UGT1A1 = molecular target: T1, UGT1A1 (Homo sapiens, UniProt P22309); experiment: SN-38 glucuronidation assay in human liver microsomes; assay type: in vitro ADME; details: for SN-38 glucuronidation rate: Caucasians
# T1 construct: microsomes were isolated following differential centrifugation methods; tissue Liver Tissue Procurement and Distribution System; Liver Core Bank Facility (St. Jude Children's Research Hospital); host or cells: normal human liver microsomes (n=83 donors)
# T1 sequence (P22309 26-533): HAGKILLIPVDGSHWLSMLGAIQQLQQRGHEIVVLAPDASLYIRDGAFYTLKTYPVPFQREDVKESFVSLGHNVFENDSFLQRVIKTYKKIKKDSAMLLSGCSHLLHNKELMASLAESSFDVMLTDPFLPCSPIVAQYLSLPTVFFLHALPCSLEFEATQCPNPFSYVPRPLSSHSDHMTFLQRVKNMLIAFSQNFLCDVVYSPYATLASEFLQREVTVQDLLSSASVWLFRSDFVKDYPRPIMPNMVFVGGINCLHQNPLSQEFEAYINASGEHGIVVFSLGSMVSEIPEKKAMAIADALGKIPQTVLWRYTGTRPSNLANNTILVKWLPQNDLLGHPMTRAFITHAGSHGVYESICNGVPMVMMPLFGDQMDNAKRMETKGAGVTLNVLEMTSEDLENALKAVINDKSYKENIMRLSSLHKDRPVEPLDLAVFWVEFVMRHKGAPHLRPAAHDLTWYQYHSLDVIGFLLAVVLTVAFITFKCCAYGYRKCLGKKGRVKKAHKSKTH
# From the text: Normal human livers (n=83) were mainly obtained from Liver Tissue Procurement and Distribution System (National Institutes of Diabetes and Digestive and Kidney Diseases, Minneapolis, Minn.). DNA was isolated by using Qiagen RNA/DNA Maxi Kit (Qiagen Inc., Valencia, Calif., USA), and microsomes were isolated following differential centrifugation methods (Purba et al., 1987). DNA and microsomes were provided by the Liver Core Bank Facility (St. Jude Children's Research Hospital) of the Pharmacogenetics of Anticancer Agents Research (PAAR) Group. In order to identify livers in which enzyme degradation occurred, liver samples consistently comprised in the 10th percentile of UGT1A1, UGT1A9 and UGT2B7 activities were sought. UGT1A9 and UGT2B7 activities were measured using specific probes (data not shown) (Ramirez et al., 2002 and Innocenti, et al., 2001). Out of eight samples within the 10th percentile of UGT1A1, only one sample was comprised within the 10th percentile of activities of the other two enzyme activities.
# Samples were phenotyped by using SN-38 as a substrate for UGT1A1. The incubation mixture consisted of 5 μmol SN-38, 10 mmol MgCl2, 1 mg/ml microsomes, 0.025 mol Tris-HCl (pH 7.4) and 5 mmol UDP-GA. Samples were incubated for 30 min at 37° C. The reaction was stopped by the addition of methanol. These conditions were selected after previous optimization of the enzyme reaction (Iyer et al., 1998). Camptothecin (75 ng) was used as an internal standard. SN-38 glucuronidation was measured by HPLC (Hitachi Instruments Inc., San Jose, Calif., USA) with fluorescence detection (λ excitation=355 nm, λ emission=515 nm). A μBondapak™ C18 column (3.9×300 mm, 10 μm; Waters Corp., Milford, Mass., USA) and μBondapak™ C18 guardpak (Waters Corp.) were used. A mobile phase of […] acetonitrile/tetra-hydrofuran/0.9 mmol sodium heptanedfonic acid in 50 mmol potassium dihydrogen phosphate (pH 4) was used during the first 7 min of the run. From 7.1-25 min, the eluent consisted of 30/70 acetonitrile/5 mmol sodium heptanesulfonic acid in 50 mmol potassium dihydrogen phosphate (pH 4). The flow rate was 0.9 ml/min. […] The intra-assay variability was determined by performing 10 incubations on the same day using a pool of human liver microsomes. The inter-assay variability was evaluated by incubating a pool of human liver microsomes in triplicate on three different days. […]
# UGT1A1 activity was phenotyped by measuring SN-38 glucuronidation rates of each liver as the mean±SD of a single experiment performed in triplicate. […] Moreover, trend analysis and pairwise comparisons were performed in genotypes expressed as the sum of TA repeats in both chromosomes (i.e. in samples with […] (5/6, 6/6, 5/7), 13 (6/7) and […] (7/7, 6/8, 7/8) TA repeat genotypes). […]
# UGT1A isoforms = experiment: In vitro TAS-103 and SN-38 glucuronidation activity in species deficient in UGT1A isoforms; assay type: in vitro ADME; details: Gunn rats and CN-1 patients deficient in UGT1A isoforms
# From the text: On the other hand, while isoforms of the UGT1 family are the predominate isoforms involved in TAS-103 glucuronidation, the isoform of the UGT2 family may also participate in TAS-103 glucuronidation. Failure to glucuronidate SN-38 and TAS-103 in these instances may result specifically from the genetic defect in UGT1 gene family.
# [1] = Pharmacokinetic analysis of irinotecan and metabolites in patient plasma; assay type: in vivo, human; details: for SN-38 AUC, mean / SN-38^b AUC, mean: after irinotecan; for AUC: human, plasma, 350 mg/m2, Irinotecan AUC, mean
# Description: Venous blood for pharmacokinetic analysis was collected on day 1 of cycle 1 for pharmacokinetic analysis. Samples of 7 ml were collected into green top sodium heparinized Vacutainer® tubes prior to the infusion; 30, 60, and 90 minutes during the infusion; and 10, 20, 30, 45, and 60 minutes and 1.5, 2, 4, 6, 12, and 24 hours after the infusion. Samples were centrifuged (2500 rpm, 20 min, 4° C.) and the plasma was immediately separated, transferred as two aliquots into storage tubes, frozen at −80° C. until analysis.
# The glucuronidation ratio was expressed as the ratio of the SN-38G AUC over SN-38 AUC.
# solid tumors or lymphoma = experiment: Objective tumor response in patients given irinotecan; assay type: in vivo, human
# [2] = test system: patients with solid tumors or lymphoma
# patients = details: cited from earlier work
# [3] = TA indel genotype 6/6, 30 patients
# [4] = TA indel genotype 6/7, 25 patients
# [5] = TA indel genotype 7/7, 6 patients
smiles,measurement,setting,value
"CCc1c2c(nc3ccc(O)cc13)-c1cc3c(c(=O)n1C2)COC(=O)[C@]3(O)CC [SN-38, 7-ethyl-10-hydroxycamptothecin]",coefficient of variation of SN-38 glucuronidation,UGT1A1; 83 human liver microsomes,46%
same,range in SN-38 glucuronidation,UGT1A1; 83 human liver microsomes,10 fold
same,SN-38 glucuronidation rate,UGT1A1; I/I haplotype pairs,2.53±0.82 SN-38G/IS
same,SN-38 glucuronidation rate,UGT1A1; I/II haplotype pairs,2.06±0.74 SN-38G/IS
same,in vitro glucuronidation compared to healthy liver donors,UGT1A isoforms,no in vitro glucuronidation
same,"Glucuronidation Ratio (SN-38G AUC/SN-38 AUC), mean",[1]; [3],6.52
same,"SN-38 AUC, mean",[1]; [3],335.9 ng·h/mL
same,"SN-38^b AUC, mean",[1]; [3],1954.2 ng·h/mL
same,"Glucuronidation Ratio (SN-38G AUC/SN-38 AUC), mean",[1]; [4],5.55
same,"SN-38 AUC, mean",[1]; [4],458.4 ng·h/mL
same,"SN-38^b AUC, mean",[1]; [4],1887.9 ng·h/mL
same,"Glucuronidation Ratio (SN-38G AUC/SN-38 AUC), mean",[1]; [5],3.59
same,"SN-38 AUC, mean",[1]; [5],542.0 ng·h/mL
same,"SN-38^b AUC, mean",[1]; [5],1819.1 ng·h/mL
"CN(C)CCNc1nc2cc(O)ccc2c2c1C(=O)c1ccccc1-2.Cl.Cl [TAS-103, 6-[[2-(dimethylamino)ethyl]amino]-3-hydroxy-7H-indeno[2,1-c]quinoline-7-one dihydrochloride]",lower glucuronidation rate in vitro compared to healthy liver donors,UGT1A isoforms,~80%
"CCc1c2c(nc3ccc(OC(=O)N4CCC(N5CCCCC5)CC4)cc13)-c1cc3c(c(=O)n1C2)COC(=O)[C@]3(O)CC [irinotecan, 7-ethyl-10-[4-(1-piperidino)-1-piperidino]carbonyloxycamptothecin]",AUC,"[1]; intravenous, TA indel genotype 6/7, 25 patients",26100 ng·h/mL
same,AUC,"[1]; intravenous, TA indel genotype 7/7, 6 patients",25400 ng·h/mL
same,AUC,"[1]; iv, TA indel genotype 6/6, 30 patients, 350 mg/m2 90 minute i.v. infusion",24400 ng·h/mL
same,objective responses,solid tumors or lymphoma; 60 patients assessable for response,three objective responses
same,"partial response, patients","solid tumors or lymphoma; colorectal and head and neck cancer, 6/7 genotype",Two patients
same,"complete response, patients","solid tumors or lymphoma; colorectal cancer, 6/6 genotype",One colorectal cancer patient
same,frequency of grade 4 neutropenia,"[2]; TA indel genotype 6/6 (0/30), cycle 1",0%
same,frequency of grade 4 neutropenia,"[2]; TA indel genotype 6/7 (3/24), cycle 1",12.5%
same,frequency of grade 4 neutropenia,"[2]; TA indel genotype 7/7 (3/6), cycle 1",50%
same,frequency of grade 4 neutropenia,"[2]; all assessable patients, cycle 1, 350 mg/m2 i.v. every 3 weeks",9.5%
same,frequency of grade 3 diarrhea,"[2]; all patients, cycle 1",5%
same,grade 4 diarrhea,"[2]; all patients, cycle 1",no instances
same,toxic death,"[2]; neutropenia-related sepsis, 7/7 genotype, died on day 11",One toxic death
same,patients with grade 4 neutropenia,[2]; out of the 7 patients with total bilirubin higher than 0.7 mg/dl,4
same,cases of grade 4 neutropenia,[2]; patients with pretreatment total bilirubin less than 0.6 mg/dl,No cases
same,patients experiencing grade 3-4 neutropenia,patients; both weekly and three-weekly regimens,30-40%
same,"grade 3-4 diarrhea, share of patients",patients; early single agent trials (Negoro 1991; Rothenberg 1993),about one third
same,frequency of grade 3-4 diarrhea,"patients; three-weekly regimen (Fuchs et al., 2003)",19%
same,mortality rate,"patients; three-weekly single agent regimen (Fuchs et al., 2003)",1.6%
same,frequency of grade 3-4 diarrhea,"patients; weekly schedule (Fuchs et al., 2003)",36%
same,mortality rate,"patients; weekly single agent regimen (Fuchs et al., 2003)",5.3%
